Results taken from patent publication US11141428B2, “Octasaccharides and uses thereof” (Academia Sinica, priority 2017, dated 2021).
“Also recorded” adds a separate entry of the source.

Columns and labels:
adult DRG neurons = assay: Rescue of dystrophic endballs and axonal growth of adult DRG neurons across an aggrecan gradient (FIG. 1b, c); type: cell-based, mice; conditions: for promotion of axonal growth / penetration across an aggrecan gradient / rescue / prevention of dystrophic endball formation: 20 μg/mL, adult DRG neurons on aggrecan gradient, FIG. 1 panel b; for axons invading the aggrecan rim that could pass the rim of aggrecan gradient: FIG. 1 panel c, left, comparable to chondroitinase ABC (C-ABC) digestion of chondroitin sulfate
Protocol: Preparation of an aggrecan gradient spot on coverslip. Glass coverslips were coated with 100 μg/mL PLL overnight at room temperature, rinsed with sterile water and dried completely. Onto the coverslip, 2 μL of an aggrecan (0.4 mg/mL) and laminin (10 μg/mL) mixture in Ca^2+- and Mg^2+-free Hank's balanced salt solution (HBSS) (Invitrogen) was spotted and dried. Then, the coverslip was bathed in laminin ([…]) solution in HBSS until just before (i.e., at least 3 h before) cell plating at 37° C. The laminin solution was subsequently removed, and the cells were plated without allowing the surface of the coverslip to dry.
DRG neuron primary culture. DRGs were dissected out of C57BL/6J (SLC) adult (12-16 weeks) female mice. The roots of isolated DRGs were trimmed in cold HBSS, collected in a centrifuge tube and spun down for 1 min at low speed (500 rpm). Then, the HBSS was removed. The tissues were incubated in collagenase-II (4 mg/mL)/dispase-II (4.67 mg/mL) in HBSS for 15 min at 37° C. After spinning down at low speed, the tissues were rinsed once with pre-warmed culture media consisting of Neurobasal-A (Gibco) with Gluta-MAX (Gibco), Anti-Anti (Gibco) and B-27 (Invitrogen), then spun down and triturated in fresh media. To refine neurons, the cell suspension was carefully overlaid onto 15% bovine serum albumin (BSA) in HBSS and spun down for 5 min at high speed (1000 rpm), and the supernatant was gently removed. The DRG cells were rinsed once and suspended in the media. The DRG cells were plated onto coverslips in the media.
Immunostaining. DRG neurons were fixed in ice-cold methanol for 15 min at −30° C. The fixed samples were then rinsed three times with phosphate buffered saline (PBS) and incubated in a blocking solution containing 5% (v/v) goat serum (Vector) and 0.2% (v/v) Triton-X 100 (Sigma) for 90 min at room temperature. For neuron-specific class III β-tubulin (Tuj1) staining, samples were bathed in 1:1000 mouse monoclonal Tuj1 (Covance, 801201) diluted in PBS containing 2.5% (v/v) normal goat serum overnight at 4° C. After three washes with PBS, neurons were incubated with 1:250 Alexa488-conjugated goat anti-mouse IgG (Molecular Probes, A11001) dissolved in PBS containing 2.5% (v/v) goat serum for 2 h at room temperature.

RPTPσ = assay: Activation / phosphorylation of RPTPσ by sulfated octasaccharides (Western blot, densitometric analysis, FIG. 1a); type: cell-based; conditions: 10 μg/mL, 15 min; FIG. 1 panel a
Protocol: SDS-PAGE and Western blotting. Cells were lysed with Tris-buffered saline (TBS), 1% Triton-X, Complete Mini Protease Inhibitor Cocktail (Roche) and Phostop Phosphatase Inhibitor Cocktail (Roche). Lysates were incubated on ice for 10 min and centrifuged at 20000 g for 10 min at 4° C. Supernatants were mixed with 4×SDS sample buffer and boiled for 5 min.
All samples were run on 5-20% gradient gel (Wako) and transferred to nitrocellulose membranes (GE Healthcare). After blocking with 5% non-fat dry milk or BSA, the membranes were blotted with primary antibodies. Primary antibodies used in this work included anti-EGFR pY1174 (Invitrogen, 44794G), anti-HA (Roche, clone 3F10), 4G10 Platinum (Millipore, 05-1050) and anti-β-actin (Sigma Aldrich, clone AC-15). All primary antibodies were used at 1:1000 dilution. All secondary antibodies conjugated with horseradish peroxidase were from Jackson ImmunoResearch and used at 1:3000 dilution. Membranes were developed with Novex ECL (Invitrogen) or ECL Plus Substrate (Pierce).

| Molecule | promotion of axonal growth / penetration across an aggrecan gradient (adult DRG neurons) | rescue / prevention of dystrophic endball formation (adult DRG neurons) | axons invading the aggrecan rim that could pass the rim of aggrecan gradient (adult DRG neurons) | activation of RPTPσ (inducing phosphorylation of RPTPσ) (RPTPσ) | promotion of axonal growth / penetration across an aggrecan gradient (adult DRG neurons; listed as HS 14) | rescue / prevention of dystrophic endball formation (adult DRG neurons; listed as HS 14) |
| --- | --- | --- | --- | --- | --- | --- |
| 5-Aminopentyl (2-deoxy-2-sulfamido-6-O-sulfonato-α-D-glucopyranosyl)-(1→4)-α-L-idopyranosiduronyl-(1→4)-(2-deoxy-2-sulfamido-6-O-sulfonato-α-D-glucopyranosyl)-(1→4)-β-D-glucopyranosiduronyl-(1→4)-(2-deoxy-2-sulfamido-6-O-sulfonato-α-D-glucopyranosyl)-(1→4)-α-L-idopyranosiduronyl-(1→4)-(2-deoxy-2-sulfamido-6-O-sulfonato-α-D-glucopyranosyl)-(1→4)-β-D-glucopyranosiduronate [HS16] | facilitated their penetration across the gradient | prevent formation of dystrophic endballs | Nearly half | – | – | – |
| 5-Aminopentyl (2-deoxy-2-sulfamido-α-D-glucopyranosyl)-(1→4)-α-L-idopyranosiduronyl-(1→4)-(2-deoxy-2-sulfamido-α-D-glucopyranosyl)-(1→4)-β-D-glucopyranosiduronyl-(1→4)-(2-deoxy-2-sulfamido-α-D-glucopyranosyl)-(1→4)-α-L-idopyranosiduronyl-(1→4)-(2-de oxy-2-sulfamido-α-D-glucopyranosyl)-(1→4)-β-D-glucopyranosiduronate [HS10] | – | – | – | capable of inducing phosphorylation of RPTPσ | – | – |
| NCCCCCO[C@@H]1O[C@H](C(=O)O)[C@@H](O[C@H]2O[C@H](CO)[C@@H](O[C@@H]3O[C@@H](C(=O)O)[C@@H](O[C@H]4O[C@H](CO)[C@@H](O[C@@H]5O[C@H](C(=O)O)[C@@H](O[C@H]6O[C@H](CO)[C@@H](O[C@@H]7O[C@@H](C(=O)O)[C@@H](O[C@H]8O[C@H](CO)[C@@H](O)[C@H](O)[C@H]8NS(=O)(=O)O)[C@H](O)[C@H]7OS(=O)(=O)O)[C@H](O)[C@H]6NS(=O)(=O)O)[C@H](O)[C@H]5OS(=O)(=O)O)[C@H](O)[C@H]4NS(=O)(=O)O)[C@H](O)[C@H]3OS(=O)(=O)O)[C@H](O)[C@H]2NS(=O)(=O)O)[C@H](O)[C@H]1OS(=O)(=O)O [HS14] | promoted axonal growth | rescued dystrophic endball formation | Nearly half | capable of inducing phosphorylation of RPTPσ; also recorded: activated RPTPσ | facilitated their penetration across the gradient | prevent formation of dystrophic endballs |
